From patent US11253525B2, “Inhibitors of indoleamine 2,3-dioxygenase and methods of their use” (BRISTOL-MYERS SQUIBB COMPANY, priority 2018, dated 2022) come the findings set out here.

Read-outs that look alike come from different tables or passages of the source.

Assay [1] deals with T1, indoleamine 2,3-dioxygenase (IDO) (Homo sapiens, UniProt P14902).
T1 construct: replaced with media containing IFNγ (#285-IF/CF, R&D Systems) at a final concentration of 25 ng/mL; endogenous in cells; host or cells: HeLa (ATCC CCL-2), IFN-gamma stimulated
Put plainly: HeLa cell-based indoleamine 2,3-dioxygenase (IDO) assay, kynurenine production. Particulars: HeLa cells, IFNγ 25 ng/mL, 48 hour incubation.

Assay [2] deals with T2, human IDO1 (Homo sapiens, UniProt P14902).
T2 construct: expressed in transfected cells
Put plainly: HEK293 cell-based indoleamine 2,3-dioxygenase (IDO) assay. Particulars: human IDO1/HEK293 cells, 20 hours. The protocol: Assessment of Inhibitor Activity in HEK293 Cell-Based Indoleamine 2,3-Dioxygenase (IDO) Assay
HEK293 cells were transfected with a pCDNA-based mammalian expression vector harboring human IDO1 cDNA (NM 002164.2) by electroporation. They were cultured in medium (DMEM with 10% FBS) containing 1 mg/ml G418 for two weeks. Clones of HEK293 cells that stably expressed human IDO1 protein were selected and expanded for IDO inhibition assay.
The human IDO1/HEK293 cells were seeded at 10,000 cells per 50 μL per well with RPMI/phenol red free media contains 10% FBS in a 384-well black wall clear bottom tissue culture plate (Matrix Technologies LLC) 100 nL of certain concentration of compound was then added to each well using ECHO liquid handling systems. The cells were incubated for 20 hours in 37° C. incubator with 5% CO2.
The compound treatments were stopped by adding trichloroacetic acid (Sigma-Aldrich) to a final concentration at 0.2%. The cell plate was further incubated at 50° C. for 30 minute. The equal volume supernatant (20 μL) and 0.2% (w/v) Ehrlich reagent (4-dimethylaminobenzaldehyde, Sigma-Aldrich) in glacial acetic acid were mixed in a new clear bottom 384-well plate. This plate was then incubated at room temperature for 30 minute. The absorbance at 490 nm was measured on Envision plate reader.
Compound IC50 values were calculated using the counts of 500 nM of a reference standard treatment as one hundred percent inhibition, and counts of no compound but DMSO treatment as zero percent inhibition.

Setting [3] is: read-out: IDO1 HEK Human IC50 class (A < 50, B < 250, C < 2000).
Setting [4] is: read-out: IDO Hela IC50 class (A < 50, B < 250, C < 2000).

T1 sequence (P14902 whole entry): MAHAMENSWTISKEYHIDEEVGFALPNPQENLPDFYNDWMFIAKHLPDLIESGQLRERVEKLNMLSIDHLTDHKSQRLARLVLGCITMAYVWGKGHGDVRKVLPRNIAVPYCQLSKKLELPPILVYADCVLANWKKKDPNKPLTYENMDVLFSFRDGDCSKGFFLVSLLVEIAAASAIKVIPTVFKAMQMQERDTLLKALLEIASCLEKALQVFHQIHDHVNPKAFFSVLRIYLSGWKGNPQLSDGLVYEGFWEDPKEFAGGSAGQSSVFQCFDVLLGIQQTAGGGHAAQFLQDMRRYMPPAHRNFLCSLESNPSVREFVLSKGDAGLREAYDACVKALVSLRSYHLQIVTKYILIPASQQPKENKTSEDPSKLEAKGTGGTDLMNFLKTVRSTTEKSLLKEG
T2 sequence (P14902 whole entry): as above

With `CC(C)CC(CC(C)C)c1ccc(-c2ccccc2-c2nn[nH]n2)cc1NC(=O)Nc1ccc(Cl)cc1F` [Example 135, 1-(4-Chloro-2-fluorophenyl)-3-(4-(2,6-dimethylheptan-4-yl)-2′-(2H-tetrazol-5-yl)-[1,1′-biphenyl]-3-yl)urea], the IC50 in assay [1] (read-out: IDO Hela IC50) and in assay [2] (read-out: IDO1 HEK Human IC50) was 10 nM in each case.

In the case of `CCOC(C)(C)c1ccc([C@H](CC)CC(=O)O)cc1NC(=O)Nc1ccc(C)cc1` (single isomer, unassigned) [Example 1], the IC50 in assay [2] (setting [3]) lay within 250 to 2000 nM.

Regarding `CCO[C@@H](c1ccc([C@H](CC)CC(=O)O)cc1Nc1ccc(Cl)cc1)C(F)(F)F` (stereo in doubt) [Example 34, (R)-3-(3-((4-chlorophenyl)amino)-4-((S)-1-ethoxy-2,2,2-trifluoroethyl)phenyl)pentanoic acid], the IC50 is below 50 nM in assay [1] (setting [4]) and 1 nM in assay [2] (read-out: IDO1 HEK Human IC50).

In the case of `CCO[C@H](c1ccc(F)cc1)c1cc(Nc2ccc3nc(C)sc3c2)cc([C@H](CC)CC(=O)O)c1` (single isomer, unassigned) [Example 116], the IC50 in assay [2] (read-out: IDO1 HEK Human IC50) was determined as 108 nM.

As for `CCOC(C)(C)c1ccc(C(CC)CC(=O)O)cc1Nc1ccc2nc(C)sc2c1` (single isomer, unassigned) [Example 3], in assay [2] (setting [3]), the IC50 is 250 to 2000 nM.

Turning to `CC[C@@H](CC(=O)O)c1ccc(C(CC(C)C)CC(C)C)c(NC(=O)Nc2ccc(C)cc2)c1` [Example 137, (S)-3-(4-(2,6-Dimethylheptan-4-yl)-3-(3-(p-tolyl)ureido)phenyl)pentanoic Acid], the 50% inhibitory concentration (IC50) was below 50 nM in assay [1] (setting [4]) and 4 nM in assay [2] (read-out: IDO1 HEK Human IC50).

Take `CCOC(C)(C)c1ccc([C@@H](CC)CC(=O)O)cc1Nc1ccc(Cl)cc1` (single isomer, unassigned) [Example 5]: the IC50 in assay [2] (read-out: IDO1 HEK Human IC50) was found to be 95 nM.

As to `CCO[C@H](c1ccc(F)cc1)c1cc(Nc2ccc(Cl)cc2)cc([C@@H](CC)CC(=O)O)c1` (single isomer, unassigned) [Example 113-2], the half-inhibitory concentration (IC50) in assay [2] (read-out: IDO1 HEK Human IC50) came to 131 nM.

For `CCO[C@H](c1ccc(F)cc1)c1cc(Nc2ccc(Cl)cc2)cc([C@H](CC)CC(=O)O)c1` (single isomer, unassigned) [Example 113-1], the IC50 in assay [1] (read-out: IDO Hela IC50) and in assay [2] (read-out: IDO1 HEK Human IC50) was 20 nM in each case.

For `CCO[C@H](c1ccc(F)cc1)c1cc(Nc2ccc3nc(C)sc3c2)cc([C@@H](CC)CC(=O)O)c1` (single isomer, unassigned) [Example 117], the IC50 in assay [2] (setting [3]) was in the range of 250 to 2000 nM.

Consider `Cc1ccc(NC(=O)Nc2cc(OCC(=O)O)ccc2C(CC(C)C)CC(C)C)cc1` [Example 138, 2-(4-(2,6-Dimethylheptan-4-yl)-3-(3-(p-tolyl)ureido)phenoxy)acetic acid], for which, in assay [2] (read-out: IDO1 HEK Human IC50), the IC50 was determined as 464 nM.

Turning to `CCO[C@@H](c1ccc(F)cc1)c1cc(Nc2ccc3nc(C)sc3c2)cc([C@@H](CC)CC(=O)O)c1` (single isomer, unassigned) [Example 115], the IC50 in assay [2] (read-out: IDO1 HEK Human IC50) is 1200 nM.

With `CCO[C@@H](c1ccc(F)cc1)c1cc(Nc2ccc3nc(C)sc3c2)cc([C@H](CC)CC(=O)O)c1` (single isomer, unassigned) [Example 114], the IC50 came to 20 nM in assay [1] (read-out: IDO Hela IC50) and 23 nM in assay [2] (read-out: IDO1 HEK Human IC50).

For `CCO[C@@H](c1ccc(F)cc1)c1cc(Nc2ccc(Cl)cc2)cc([C@H](CC)CC(=O)O)c1` (single isomer, unassigned) [Example 112-1], the IC50 in assay [1] (setting [4]) was below 50 nM; in assay [2] (read-out: IDO1 HEK Human IC50), 2 nM.

Take `CCOC(C)(C)c1ccc([C@@H](CC)CC(=O)O)cc1NC(=O)Nc1ccc(C)cc1` (single isomer, unassigned) [Example 2]: the half-maximal inhibitory concentration (IC50) in assay [2] (read-out: IDO1 HEK Human IC50) is 224 nM; in assay [2] (setting [3]) it was 250 to 2000 nM.

On to `CCO[C@H](c1ccc([C@@H](CC)CC(=O)O)cc1Nc1ccc(Cl)cc1)C(F)(F)F` (stereo in doubt) [Example 23, (S)-3-(3-((4-chlorophenyl)amino)-4-((R)-1-ethoxy-2,2,2-trifluoroethyl)phenyl)pentanoic acid], for which, in assay [2] (read-out: IDO1 HEK Human IC50), the IC50 is 1 nM.

For `Cc1cc(NC(=O)Nc2cc(-c3ccccc3-c3nn[nH]n3)ccc2C(CC(C)C)CC(C)C)no1` [Example 136, 1-(4-(2,6-Dimethylheptan-4-yl)-2′-(2H-tetrazol-5-yl)-[1,1′-biphenyl]-3-yl)-3-(5-methylisoxazol-3-yl)urea], the IC50 in assay [2] (read-out: IDO1 HEK Human IC50) amounted to 19 nM.

`CCOC(C)(C)c1ccc([C@@H](CC)CC(=O)O)cc1Nc1ccc2nc(C)sc2c1` (single isomer, unassigned) [Example 4]: the half-maximal inhibitory concentration (IC50) in assay [2] (setting [3]) is 250 to 2000 nM.

Regarding `CCO[C@@H](c1ccc(F)cc1)c1cc(Nc2ccc(Cl)cc2)cc([C@@H](CC)CC(=O)O)c1` (single isomer, unassigned) [Example 112-2], the IC50 in assay [1] (read-out: IDO Hela IC50) came to 30 nM; in assay [2] (read-out: IDO1 HEK Human IC50), 7 nM.

As to `CCOc1ncc(Nc2cc([C@@H](CC)CC(=O)O)ccc2C(C)(C)OCC)cn1` (single isomer, unassigned) [Example 6], the IC50 in assay [2] (setting [3]) fell in the range of 250 to 2000 nM.

Consider `CCO[C@H](c1ccc([C@H](CC)CC(=O)O)cc1Nc1ccc(Cl)cc1)C(F)(F)F` (single isomer, unassigned) [Example 11], for which the IC50 in assay [1] (setting [4]) is below 50 nM; in assay [2] (read-out: IDO1 HEK Human IC50), 1 nM.

The IC50 is the concentration at which inhibition is half-maximal.
